Results from patent US20150283120A1, “ANTIBIOTIC METHODS AND COMPOSITIONS FOR BACTERIA INFECTIONS” (THE UNIVERSITY OF CHICAGO, priority 2012, published 2015).
Structures can show the parent of a compound that is named as a salt.

What was measured:
[1] = tested on: vraSR transcription (Pvra::lux); format: cell-based, Staphylococcus aureus; conditions: compound 10 μM + oxacillin 2 μg/mL; for RL avg (relative luminescence): ratio of LU to oxacillin alone, four runs
Protocol: (§1) In the secondary screen each microtiter plate contained either cells in TSB alone (16 replicates), cells with oxacillin (2 μg/mL, 31 replicates), or cells with test compound and oxacillin (2 μg/mL, 49 wells). Each compound was assayed in four separate biological replicates.
(§2) All compounds classified in the primary screen as synergists that were vraSR-stimulating or -repressing (as shown in Table 8) were screened in a secondary assay for their effects on both growth and Pvra::lux induction by oxacillin. […] Each compound was tested four separate times at 10 μM in the presence of oxacillin (2 μg/mL) and luminescence was measured every 15 minutes. Relative growth (RG) and relative luminescence (RL) was calculated as the ratio between the OD600 or max LU value in the presence of compound and oxacillin over the average from pooled control values obtained from the same plate. […] Compounds that produced an average RG (ratio of the OD600 of the culture grown with test compound combined with oxacillin to that of oxacillin alone) of <0.8 were classified as oxacillin synergists or potentiators. The relative luminescence (RL) was the ratio of the LU produced in the presence of the test compound combined with oxacillin to that produced by oxacillin alone. Compounds were classified as “vraSR repressors” (mean RL of <0.8), “vraSR stimulators”, (mean RL>1.2), and “vraSR neutral” (mean RL between 0.80-1.2). […] In contrast, 34 compounds had no effect on growth in the presence of oxacillin (“un” in the OD600 category). Among the oxacillin potentiators, there were 2 vraSR stimulators, 3 vraSR neutral compounds and 10 vraSR repressors.

[2] = tested on: MRSA strain USA300 Pvra-lux; format: cell-based, Staphylococcus aureus; conditions: compound 10 μM + oxacillin 2 μg/mL; for RG avg (relative growth): ratio of OD600 to oxacillin alone, four runs
Protocol: as §1, §2

Compound | Effect on vraSR transcription [1] | RL avg (relative luminescence) [1] | OD600 category [2] | RG avg (relative growth) [2]
C#C[C@]1(O)CC[C@H]2[C@@H]3CCc4cc(OC)ccc4[C@H]3CC[C@@]21C [Ethynylestradiol 3-methyl ether] | repress (“vraSR repressors” (mean RL of <0.8)) | 0.97 | un (no effect on growth in the presence of oxacillin (“un” in the OD600 category)) | 0.95
CCN(CC)CCOc1ccc(C(=C(Cl)c2ccccc2)c2ccccc2)cc1 (racemic) [Clomiphene citrate (Z,E), 2-(4-(2-chloro-1,2-diphenylethenyl)phenoxy)-N,N-diethyl-ethanamine] | repress (“vraSR repressors” (mean RL of <0.8)) | 0.39 | inhibited (of <0.8 were classified as oxacillin synergists or potentiators) | 0.68
C(=C\c1ccccc1)/CN1CCN(C(c2ccccc2)c2ccccc2)CC1 [Cinnarizine] | neutral (“vraSR neutral” (mean RL between 0.80-1.2)) | 0.94 | un (no effect on growth in the presence of oxacillin (“un” in the OD600 category)) | 0.97
O=C(CCCN1CC=C(n2c(=O)[nH]c3ccccc32)CC1)c1ccc(F)cc1 [Droperidol] | neutral (“vraSR neutral” (mean RL between 0.80-1.2)) | 0.91 | un (no effect on growth in the presence of oxacillin (“un” in the OD600 category)) | 1.02
Cc1ccnc(NS(=O)(=O)c2ccc(N)cc2)n1 [Sulfamerazine] | neutral (“vraSR neutral” (mean RL between 0.80-1.2)) | 1.01 | un (no effect on growth in the presence of oxacillin (“un” in the OD600 category)) | 0.99
CCC(=O)OCC(=O)[C@@]1(OC(=O)CC)[C@@H](C)C[C@H]2[C@@H]3CCC4=CC(=O)C=C[C@]4(C)[C@@]3(Cl)[C@@H](O)C[C@@]21C [Beclomethasone dipropionate] | neutral (“vraSR neutral” (mean RL between 0.80-1.2)) | 0.96 | un (no effect on growth in the presence of oxacillin (“un” in the OD600 category)) | 0.96
O=C(c1ccc(OCCN2CCCCC2)cc1)c1c(-c2ccc(O)cc2)sc2cc(O)ccc12 [Raloxifene hydrochloride] | neutral (“vraSR neutral” (mean RL between 0.80-1.2)) | 0.85 | un (no effect on growth in the presence of oxacillin (“un” in the OD600 category)) | 0.97
Trimeprazine tartrate | neutral (“vraSR neutral” (mean RL between 0.80-1.2)) | 0.96 | un (no effect on growth in the presence of oxacillin (“un” in the OD600 category)) | 1.04
CC(C(=O)O)c1ccc(N2Cc3ccccc3C2=O)cc1 (stereo not shown) [Indoprofen] | neutral (“vraSR neutral” (mean RL between 0.80-1.2)) | 0.87 | un (no effect on growth in the presence of oxacillin (“un” in the OD600 category)) | 0.98
CC1(C)S[C@@H]2[C@H](NC(=O)[C@H](NC(=O)N3CCNC3=O)c3ccccc3)C(=O)N2[C@H]1C(=O)O [Azlocillin sodium salt] | neutral (“vraSR neutral” (mean RL between 0.80-1.2)) | 0.78 | un (no effect on growth in the presence of oxacillin (“un” in the OD600 category)) | 0.91
CCCCN(CCCC)CCCOC(=O)c1ccc(N)cc1 [Butacaine] | neutral (“vraSR neutral” (mean RL between 0.80-1.2)) | 0.98 | un (no effect on growth in the presence of oxacillin (“un” in the OD600 category)) | 1.03
O=c1[nH]c2ccccc2n1CCCN1CCC(n2c(=O)[nH]c3cc(Cl)ccc32)CC1 [Domperidone] | neutral (“vraSR neutral” (mean RL between 0.80-1.2)) | 0.85 | un (no effect on growth in the presence of oxacillin (“un” in the OD600 category)) | 0.91
C[C@@H]1[C@H](O)[C@@H](C)/C=C/C=C/CC/C=C/C=C/C=C/C=C/C(O[C@H]2O[C@H](C)[C@@H](O)[C@H](N)[C@@H]2O)CC2O[C@](O)(CC(O)C(O)CCC(O)CC(O)CC(O)CC(=O)O[C@H]1C)CC(O)C2C(=O)O (stereo partly shown) [Nystatine] | neutral (“vraSR neutral” (mean RL between 0.80-1.2)) | 1.04 | un (no effect on growth in the presence of oxacillin (“un” in the OD600 category)) | 1.00
C=C(C)[C@@H]1CC[C@]2(C(=O)O)CC[C@]3(C)[C@H](CC[C@@H]4[C@@]5(C)CC[C@H](O)C(C)(C)[C@@H]5CC[C@]43C)[C@@H]12 [Betulinic acid] | neutral (“vraSR neutral” (mean RL between 0.80-1.2)) | 0.83 | un (no effect on growth in the presence of oxacillin (“un” in the OD600 category)) | 0.87
C[C@]12CC[C@H](O)C[C@H]1CC[C@@H]1[C@@H]2CC[C@]2(C)[C@@H](C3=CC(=O)OC3)CC[C@]12O [Digitoxigenin] | neutral (“vraSR neutral” (mean RL between 0.80-1.2)) | 0.97 | un (no effect on growth in the presence of oxacillin (“un” in the OD600 category)) | 1.01
C[N+]12CCC(CC1)C(OC(=O)C(O)(c1ccccc1)c1ccccc1)C2 (stereo not shown) [Clidinium bromide] | neutral (“vraSR neutral” (mean RL between 0.80-1.2)) | 0.95 | un (no effect on growth in the presence of oxacillin (“un” in the OD600 category)) | 0.97
O=C1OC(CN2CCOCC2)CN1/N=C/c1ccc([N+](=O)[O-])o1 (stereo not shown) [Furaltadone hydrochloride] | repress (“vraSR repressors” (mean RL of <0.8)) | 1.01 | un (no effect on growth in the presence of oxacillin (“un” in the OD600 category)) | 1.00
CC(Oc1ccccc1)C(=O)N[C@@H]1C(=O)N2[C@@H]1SC(C)(C)[C@@H]2C(=O)O (stereo partly shown) [Phenethicillin potassium salt] | neutral (“vraSR neutral” (mean RL between 0.80-1.2)) | 0.88 | un (no effect on growth in the presence of oxacillin (“un” in the OD600 category)) | 0.94
CN[C@@H]1[C@H](O)[C@H](NC)[C@H]2O[C@@]3(O)C(=O)C[C@@H](C)O[C@H]3O[C@@H]2[C@H]1O [Spectinomycin dihydrochloride] | neutral (“vraSR neutral” (mean RL between 0.80-1.2)) | 0.77 | un (no effect on growth in the presence of oxacillin (“un” in the OD600 category)) | 0.89
